≈ marks a conversion by molar mass, not a printed value.

One series has as its system M. tb (strain H37Rv). Put plainly: MIC90 against replicating M.tb (MABA). The note with it: Mycobacterium tuberculosis, aerobic (replicating) conditions, 90% inhibition of growth. The format is cell-based, Mycobacterium tuberculosis.
For `COc1nc2ccc(Br)cc2cc1C(c1cccc(C)c1)C(O)(CCN(C)C)c1cccnc1C` (stereo not drawn) [Compound 19], the MIC90 was found to be 0.15 µg/mL (≈ 0.281 µM).

`COc1nc2ccc(Br)cc2cc1C(c1cccc2c1OCO2)C(O)(CCN(C)C)c1cccnc1C` (stereo not drawn) [Compound 21] returned an MIC90 of 0.45 µg/mL (≈ 0.797 µM).

`COc1cccc(C(c2cc3cc(Br)ccc3nc2OC)C(O)(CCN(C)C)c2ccc(C)nc2)c1F` (stereo not drawn) [Compound 22] returned an MIC90 of 0.3 µg/mL (≈ 0.528 µM).

Regarding `COc1cccc(C(c2cc3cc(Br)ccc3nc2OC)C(O)(CCN(C)C)c2cc(C)cnc2C)c1OC` (stereo not drawn) [Compound 33], the MIC90 stood at 0.07 µg/mL (≈ 0.118 µM).

With `COc1cccc(C(c2cc3cc(Br)ccc3nc2OC)C(O)(CCN(C)C)c2cnc(C)cc2C)c1OC` (stereo not drawn) [Compound 38], the MIC90 is 0.02 µg/mL (≈ 0.0336 µM).

`COc1nc2ccc(Br)cc2cc1C(c1cccc(C)c1)C(O)(CCN(C)C)c1cccnc1OC` (stereo not drawn) [Compound 39] displayed an MIC90 of 0.13 µg/mL (≈ 0.236 µM).

The next series deals with M. tb (strain H37Rv). Nature of the series: MIC90 against non-replicating M.tb (LORA). The format is cell-based, Mycobacterium tuberculosis. The note with it: Mycobacterium tuberculosis, H37RV, read-out: MIC90 LORA. On the procedure: In these assays, 1 is a potent inhibitor, with MICs of 0.08 and 0.12 µg/mL, respectively. Replacement of the naphthalene C-unit of 1 with various pyridyls produced analogues of considerably lower lipophilicity, with clogP values ranging from 6.89 down to 2.98.
Consider `COc1nc2ccc(Br)cc2cc1C(c1cccc(C)c1)C(O)(CCN(C)C)c1cccnc1C` (stereo not drawn) [Compound 19], for which the MIC90 amounted to 0.25 µg/mL (≈ 0.468 µM).

For `COc1nc2ccc(Br)cc2cc1C(c1cccc2c1OCO2)C(O)(CCN(C)C)c1cccnc1C` (stereo not drawn) [Compound 21], the MIC90 is 0.56 µg/mL (≈ 0.992 µM).

`COc1cccc(C(c2cc3cc(Br)ccc3nc2OC)C(O)(CCN(C)C)c2ccc(C)nc2)c1F` (stereo not drawn) [Compound 22]: the MIC90 worked out at 0.28 µg/mL (≈ 0.493 µM).

For `COc1cccc(C(c2cc3cc(Br)ccc3nc2OC)C(O)(CCN(C)C)c2cc(C)cnc2C)c1OC` (stereo not drawn) [Compound 33], the MIC90 stood at 0.11 µg/mL (≈ 0.185 µM).

Take `COc1cccc(C(c2cc3cc(Br)ccc3nc2OC)C(O)(CCN(C)C)c2cnc(C)cc2C)c1OC` (stereo not drawn) [Compound 38]: the MIC90 came to 0.24 µg/mL (≈ 0.404 µM).

As for `COc1nc2ccc(Br)cc2cc1C(c1cccc(C)c1)C(O)(CCN(C)C)c1cccnc1OC` (stereo not drawn) [Compound 39], the MIC90 was 0.14 µg/mL (≈ 0.254 µM).

For a further series, the system named is M.tb. Nature of the series: Efficacy in a mouse model of TB (lung CFU reduction). Type of series: in vivo. The note with it: Mycobacterium tuberculosis, inhaled or nasal, 288 h; read-out: Log reduction in colony-forming units (CFU), new compound.
Consider `COc1cccc(C(c2cc3cc(Br)ccc3nc2OC)C(O)(CCN(C)C)c2cc(C)cnc2C)c1OC` (stereo not drawn) [Compound 33], for which the log reduction at 20 mg/kg was determined as 3.5.

Turning to `COc1cccc(C(c2cc3cc(Br)ccc3nc2OC)C(O)(CCN(C)C)c2cnc(C)cc2C)c1OC` (stereo not drawn) [Compound 38], the log reduction at 20 mg/kg is 0.7.

For `COc1nc2ccc(Br)cc2cc1C(c1cccc(C)c1)C(O)(CCN(C)C)c1cccnc1OC` (stereo not drawn) [Compound 39], the log reduction at 20 mg/kg worked out at 0.6.

Tested on in another series: not given
Assay: not given
The following applies: mouse, in vivo.
In the case of `COc1nc2ccc(Br)cc2cc1C(c1cccc(C)c1)C(O)(CCN(C)C)c1cccnc1C` (stereo not drawn) [Compound 19], the “AUC: exposure, AUCinf” value was 400 ng·h/mL.

Regarding `COc1nc2ccc(Br)cc2cc1C(c1cccc2c1OCO2)C(O)(CCN(C)C)c1cccnc1C` (stereo not drawn) [Compound 21], the “AUC: exposure, AUCinf” value came to 820 ng·h/mL.

Consider `COc1cccc(C(c2cc3cc(Br)ccc3nc2OC)C(O)(CCN(C)C)c2ccc(C)nc2)c1F` (stereo not drawn) [Compound 22], for which the “AUC: exposure, AUCinf” value turned out to be 250 ng·h/mL.

`COc1cccc(C(c2cc3cc(Br)ccc3nc2OC)C(O)(CCN(C)C)c2cc(C)cnc2C)c1OC` (stereo not drawn) [Compound 33]: the “AUC: exposure, AUCinf” value stood at 1390 ng·h/mL.

As to `COc1cccc(C(c2cc3cc(Br)ccc3nc2OC)C(O)(CCN(C)C)c2cnc(C)cc2C)c1OC` (stereo not drawn) [Compound 38], the “AUC: exposure, AUCinf” value was determined as 2080 ng·h/mL.

Take `COc1nc2ccc(Br)cc2cc1C(c1cccc(C)c1)C(O)(CCN(C)C)c1cccnc1OC` (stereo not drawn) [Compound 39]: the “AUC: exposure, AUCinf” value stood at 2510 ng·h/mL.

Staying with this series, now noted: mouse, in vivo, iv.
On to `COc1nc2ccc(Br)cc2cc1C(c1cccc(C)c1)C(O)(CCN(C)C)c1cccnc1C` (stereo not drawn) [Compound 19], for which the “IV Cl: IV clearance” value is given as 59 mL/min/kg and the “Vz: IV apparent volume of distribution during terminal phase” value (“Vz: IV apparent volume” for short) was 33 L/kg.

Consider `COc1nc2ccc(Br)cc2cc1C(c1cccc2c1OCO2)C(O)(CCN(C)C)c1cccnc1C` (stereo not drawn) [Compound 21], for which the “IV Cl: IV clearance” value was determined as 44 mL/min/kg and the “Vz: IV apparent volume” value is given as 21 L/kg.

Take `COc1cccc(C(c2cc3cc(Br)ccc3nc2OC)C(O)(CCN(C)C)c2ccc(C)nc2)c1F` (stereo not drawn) [Compound 22]: the “IV Cl: IV clearance” value is listed as 67 mL/min/kg and the “Vz: IV apparent volume” value stood at 10 L/kg.

In the case of `COc1cccc(C(c2cc3cc(Br)ccc3nc2OC)C(O)(CCN(C)C)c2cc(C)cnc2C)c1OC` (stereo not drawn) [Compound 33], the “IV Cl: IV clearance” value turned out to be 79 mL/min/kg and the “Vz: IV apparent volume” value was 77 L/kg.

As to `COc1cccc(C(c2cc3cc(Br)ccc3nc2OC)C(O)(CCN(C)C)c2cnc(C)cc2C)c1OC` (stereo not drawn) [Compound 38], the “IV Cl: IV clearance” value was found to be 28 mL/min/kg and the “Vz: IV apparent volume” value worked out at 23 L/kg.

The series is the same for the next values; noted with them: mouse, in vivo, po.
With `COc1nc2ccc(Br)cc2cc1C(c1cccc(C)c1)C(O)(CCN(C)C)c1cccnc1C` (stereo not drawn) [Compound 19], the “F: oral bioavailability” value is 10%.

As to `COc1nc2ccc(Br)cc2cc1C(c1cccc2c1OCO2)C(O)(CCN(C)C)c1cccnc1C` (stereo not drawn) [Compound 21], the “F: oral bioavailability” value came to 19%.

For `COc1cccc(C(c2cc3cc(Br)ccc3nc2OC)C(O)(CCN(C)C)c2ccc(C)nc2)c1F` (stereo not drawn) [Compound 22], the “F: oral bioavailability” value was found to be 8%.

Turning to `COc1cccc(C(c2cc3cc(Br)ccc3nc2OC)C(O)(CCN(C)C)c2cc(C)cnc2C)c1OC` (stereo not drawn) [Compound 33], the “F: oral bioavailability” value was found to be 72%.

In the case of `COc1cccc(C(c2cc3cc(Br)ccc3nc2OC)C(O)(CCN(C)C)c2cnc(C)cc2C)c1OC` (stereo not drawn) [Compound 38], the “F: oral bioavailability” value is reported as 34%.

Tested on in another series: not listed separately
Nature of the series: in vivo. The following applies: mouse, iv.
In the case of `COc1nc2ccc(Br)cc2cc1C(c1cccc(C)c1)C(O)(CCN(C)C)c1cccnc1C` (stereo not drawn) [Compound 19], the clearance is above 50 mL/min/kg.

The compound `COc1cccc(C(c2cc3cc(Br)ccc3nc2OC)C(O)(CCN(C)C)c2ccc(C)nc2)c1F` (stereo not drawn) [Compound 22] displayed a clearance above 50 mL/min/kg.

Consider `COc1cccc(C(c2cc3cc(Br)ccc3nc2OC)C(O)(CCN(C)C)c2cc(C)cnc2C)c1OC` (stereo not drawn) [Compound 33], for which the clearance is above 50 mL/min/kg.

Tested on in a further series: not listed separately
Nature of the series: in vitro. The following applies: human, microsomes.
For `COc1nc2ccc(Br)cc2cc1C(c1cccc(C)c1)C(O)(CCN(C)C)c1cccnc1C` (stereo not drawn) [Compound 19], the microsomal CLint stood at 35 µL/min/mg.

On to `COc1nc2ccc(Br)cc2cc1C(c1cccc2c1OCO2)C(O)(CCN(C)C)c1cccnc1C` (stereo not drawn) [Compound 21], for which the microsomal CLint was 71 µL/min/mg.

Take `COc1cccc(C(c2cc3cc(Br)ccc3nc2OC)C(O)(CCN(C)C)c2ccc(C)nc2)c1F` (stereo not drawn) [Compound 22]: the microsomal CLint was determined as 24 µL/min/mg.

As to `COc1cccc(C(c2cc3cc(Br)ccc3nc2OC)C(O)(CCN(C)C)c2cc(C)cnc2C)c1OC` (stereo not drawn) [Compound 33], the microsomal CLint came to 7 µL/min/mg.

Consider `COc1cccc(C(c2cc3cc(Br)ccc3nc2OC)C(O)(CCN(C)C)c2cnc(C)cc2C)c1OC` (stereo not drawn) [Compound 38], for which the microsomal CLint was found to be 13 µL/min/mg.

Compound `COc1nc2ccc(Br)cc2cc1C(c1cccc(C)c1)C(O)(CCN(C)C)c1cccnc1OC` (stereo not drawn) [Compound 39] yielded an intrinsic metabolic clearance (microsomal CLint) of 10 µL/min/mg.

Tested on in a further series: not listed separately
Put plainly: in vitro. The note with it: mouse, microsomes.
Take `COc1nc2ccc(Br)cc2cc1C(c1cccc(C)c1)C(O)(CCN(C)C)c1cccnc1C` (stereo not drawn) [Compound 19]: the microsomal CLint was determined as 71 µL/min/mg.

The compound `COc1nc2ccc(Br)cc2cc1C(c1cccc2c1OCO2)C(O)(CCN(C)C)c1cccnc1C` (stereo not drawn) [Compound 21] yielded an intrinsic clearance (microsomal CLint) of 51 µL/min/mg.

On to `COc1cccc(C(c2cc3cc(Br)ccc3nc2OC)C(O)(CCN(C)C)c2ccc(C)nc2)c1F` (stereo not drawn) [Compound 22], for which the intrinsic clearance (microsomal CLint) is 99 µL/min/mg.

As to `COc1cccc(C(c2cc3cc(Br)ccc3nc2OC)C(O)(CCN(C)C)c2cc(C)cnc2C)c1OC` (stereo not drawn) [Compound 33], the microsomal CLint amounted to 17 µL/min/mg.

Regarding `COc1cccc(C(c2cc3cc(Br)ccc3nc2OC)C(O)(CCN(C)C)c2cnc(C)cc2C)c1OC` (stereo not drawn) [Compound 38], the microsomal CLint was 46 µL/min/mg.

For the compound `COc1nc2ccc(Br)cc2cc1C(c1cccc(C)c1)C(O)(CCN(C)C)c1cccnc1OC` (stereo not drawn) [Compound 39], the microsomal CLint is 20 µL/min/mg.

A further series deals with hERG potassium channel (Homo sapiens, UniProt Q12809). Put plainly: Inhibition of hERG potassium current (patch clamp electrophysiology). The note with it: 3 µM; manual or (less accurate) QPatch assay. A general note: The hERG channel carries a current that helps repolarise heart muscle cells.
Chain of hERG potassium channel (Q12809 whole entry): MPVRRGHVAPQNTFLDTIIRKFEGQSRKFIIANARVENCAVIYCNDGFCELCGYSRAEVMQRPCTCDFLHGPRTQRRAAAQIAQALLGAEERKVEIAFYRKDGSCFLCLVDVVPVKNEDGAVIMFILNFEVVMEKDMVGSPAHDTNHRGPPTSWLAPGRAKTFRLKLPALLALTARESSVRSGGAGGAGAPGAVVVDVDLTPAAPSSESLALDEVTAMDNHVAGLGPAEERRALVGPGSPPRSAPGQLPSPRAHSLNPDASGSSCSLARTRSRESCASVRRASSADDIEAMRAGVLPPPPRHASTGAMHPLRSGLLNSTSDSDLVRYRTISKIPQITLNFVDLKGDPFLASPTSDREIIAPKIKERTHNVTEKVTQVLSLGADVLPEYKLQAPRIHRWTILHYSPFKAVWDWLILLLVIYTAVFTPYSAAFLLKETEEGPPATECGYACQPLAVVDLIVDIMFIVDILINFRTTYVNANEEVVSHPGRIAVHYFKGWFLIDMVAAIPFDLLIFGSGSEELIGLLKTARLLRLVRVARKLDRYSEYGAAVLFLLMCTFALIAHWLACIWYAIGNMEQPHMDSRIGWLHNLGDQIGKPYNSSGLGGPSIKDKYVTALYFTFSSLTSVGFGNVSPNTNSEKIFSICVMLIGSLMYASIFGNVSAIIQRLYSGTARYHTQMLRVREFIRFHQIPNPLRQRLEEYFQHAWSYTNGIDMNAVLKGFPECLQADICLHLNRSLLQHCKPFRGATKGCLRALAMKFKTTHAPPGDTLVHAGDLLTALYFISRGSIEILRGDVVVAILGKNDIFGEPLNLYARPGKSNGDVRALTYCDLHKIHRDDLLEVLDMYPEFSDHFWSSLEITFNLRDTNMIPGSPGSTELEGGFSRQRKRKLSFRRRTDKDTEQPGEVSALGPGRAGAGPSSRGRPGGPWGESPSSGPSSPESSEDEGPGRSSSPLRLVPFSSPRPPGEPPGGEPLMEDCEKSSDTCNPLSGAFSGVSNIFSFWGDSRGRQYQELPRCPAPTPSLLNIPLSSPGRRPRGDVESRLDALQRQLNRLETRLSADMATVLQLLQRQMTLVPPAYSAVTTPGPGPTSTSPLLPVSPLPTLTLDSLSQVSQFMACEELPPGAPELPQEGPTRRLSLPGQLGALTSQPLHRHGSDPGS
Regarding `COc1nc2ccc(Br)cc2cc1C(c1cccc(C)c1)C(O)(CCN(C)C)c1cccnc1C` (stereo not drawn) [Compound 19], the “hERG % inhibition at 3 µM” value is given as 26%/3.

`COc1nc2ccc(Br)cc2cc1C(c1cccc2c1OCO2)C(O)(CCN(C)C)c1cccnc1C` (stereo not drawn) [Compound 21]: the “hERG % inhibition at 3 µM” value came to 13%/3.

With `COc1cccc(C(c2cc3cc(Br)ccc3nc2OC)C(O)(CCN(C)C)c2ccc(C)nc2)c1F` (stereo not drawn) [Compound 22], the “hERG % inhibition at 3 µM” value turned out to be 17%/3.

The same series, now with this note: read-out: hERG IC50; manual patch clamp, 5-concentration dose-response.
Regarding `COc1cccc(C(c2cc3cc(Br)ccc3nc2OC)C(O)(CCN(C)C)c2cc(C)cnc2C)c1OC` (stereo not drawn) [Compound 33], the IC50 is 1100 nM.

For the compound `COc1cccc(C(c2cc3cc(Br)ccc3nc2OC)C(O)(CCN(C)C)c2cnc(C)cc2C)c1OC` (stereo not drawn) [Compound 38], the IC50 worked out at 3900 nM.

On to `COc1nc2ccc(Br)cc2cc1C(c1cccc(C)c1)C(O)(CCN(C)C)c1cccnc1OC` (stereo not drawn) [Compound 39], for which the half-maximal inhibitory concentration (IC50) stood at 450 nM.

In general, MIC90 refers to an inhibitory concentration at the 90% level, which refers to growth in some studies and to a panel of isolates in others. What is called clearance is the volume of plasma or blood freed of the substance per unit of time. Read a high clearance as a high capacity for elimination. What is called microsomal CLint is a measure of how fast metabolising enzymes remove a compound, apart from limits set by blood flow. One may read the IC50 as the concentration needed to halve the response being measured.
